In patent US11931465B2, “Functionalized Prussian blue nanoparticles, combination Prussian blue nanoparticle-based nano-immunotherapy and applications thereof” (Children's National Medical Center, priority 2016, dated 2024):
Entries after “also recorded” stand apart in the source; their conditions may differ.

Assays:
M2 MPNST tumors = assay: Syngeneic subcutaneous mouse model of MPNST; format: in vivo; conditions: PD901 5 mg/kg daily oral; PTT 50 μL 1 mg/mL PBNPs intratumoral, 1.5 W/cm^2 10 minutes, once
Experimental: In vivo studies. 1 million M2 cells were injected into the backs of B6129SF1/J mice in 100 μL 50% phosphate buffered saline (PBS, Life Technologies, Carlsbad, CA)/50% Matrigel (Corning, Corning, NY). Treatment commenced when tumors reached 10 mm in diameter. Animals were treated in four groups: (1) Untreated (n=5): animals received no treatment, (2) PTT-treated (n=5): animals were intratumorally injected with 50 μL of 1 mg/mL PBNPs and irradiated for 10 minutes with 1.5 W/cm^2 NIR laser, (3) PD901-treated (n=5): animals were given 5 mg/kg PD901 daily by oral gavage in 0.5% hydroxypropyl methylcellulose and 0.2% Tween80, and (4) PD901 plus PTT combo-treated (n=5): animals were given both PTT and PD901 treatments as listed above. […] Tumors were measured daily by calipers. For histological analysis of the effects of the treatments, tumors were harvested eight hours post treatment (treatments described above; n=2-3 per group), processed, and stained with hematoxylin and eosin (H&E) for subsequent microscopy.

ERK activation (p-ERK) = assay: Western blot for p-ERK in M2 cells; format: cell-based, mouse
Experimental: Western blots. Treated M2 cells were lysed in 1×RIPA buffer [50 mM Tris-HCL (pH 7.4), 150 mM NaCl, 1% Triton X-100, 1% sodium deoxycholate, 0.1% SDS, 1 mM EDTA, complete protease inhibitor (Roche, Basel, Switzerland) and phosphatase inhibitor (Roche, Basel, Switzerland)]. Samples were analyzed by SDS-PAGE and transferred onto PVDF membranes (Millipore, Billerica, MA). The blots were then blocked in 5% non-fat milk in TBST, followed by incubation of primary antibodies at 4° C. overnight. After washing, the blots were incubated in horseradish peroxidase (HRP)-conjugated secondary antibodies at room temperature for 1 hour. Signals were detected using ECL or ECL plus (GE healthcare, Little Chalfont, United Kingdom) followed by film development. The primary antibodies used are as follows: p-ERK (1:1,000, rabbit, Cell Signaling, Danvers, MA), ERK (1:2,000, rabbit, Cell Signaling, Danvers, MA), and β-actin (1:10,000, mouse, Sigma-Aldrich, St. Louis, MO).

M2 mouse MPNST cells [1] = assay: CellTiter-Glo cell viability assay; format: cell-based; conditions: 48 h, 48 h treatment
Experimental: Cell viability assays. M2 cells were seeded at 50,000 cells per well in 96-well cell culture plates overnight. After treatment, the cells were analyzed for viability using the ATP-based CellTiter-Glo Luminescent Cell Viability Assay (Promega, Madison, WI).

M2 mouse MPNST cells [2] = assay: Flow cytometry for apoptosis/necrosis and cell cycle; format: cell-based; conditions: 0.1, 1 and 10 μM, 24 h
Experimental: Flow cytometry. After the relevant treatments, M2 cells were stained with PE-Annexin V (BD Pharmingen, Franklin Lakes, NJ) and 7AAD (BD Pharmingen, Franklin Lakes, NJ). For cell cycle analysis, M2 cells were stained with propidium iodide (ThermoFisher Scientific, Carlsbad, CA) after treatment. Flow cytometry was performed on a BD FACSCalibur and analyzed with the FlowJo 7.6 software.

## O=C(NOC[C@H](O)CO)c1ccc(F)c(F)c1Nc1ccc(I)cc1F [PD901, PD-0325901]
M2 MPNST tumors
  median survival: 18 days
ERK activation (p-ERK); 1 μM, 4 h or 8 h, versus vehicle
  p-ERK expression / ERK activation: effectively blocked; also recorded: markedly decreased
ERK activation (p-ERK); 4 h, HIGH doses: 1.0 μM PD901, 0.05 mg/mL PBNP + 1.5 W/cm^2 laser 10 minutes
  p-ERK expression: complete eradication
M2 mouse MPNST cells [1]
  IC50: ~1 µM
M2 mouse MPNST cells [2]
  mechanism of cell death: both apoptosis (Annexin V+7AAD−) and late apoptosis/necrosis (7AAD+)
M2 mouse MPNST cells [2]; concentration-dependent
  cell cycle effect: significant arrest of M2 cells in the G0/G1 phase
